The text below walks through data of patent publication US11845751B2, “Triazolotriazine derivatives as A2A receptor antagonists” (ZHEJIANG VIMGREEN PHARMACEUTICALS, LTD., priority 2018, dated 2023).

For the experiment, the target named is T1, A2AR (hADORA2A-HEK293 cells) (Homo sapiens, UniProt P29274).
T1 construct: expressed in transfected cells; host or cells: HEK293 (hADORA2A-HEK293)
Kind of experiment: functional cAMP production assay: NECA stimulation of cAMP production and its inhibition by A2AR antagonists. The class given is cell-based. To be noted: A2AR-expressing HEK293 cells (hADORA2A-HEK293); NECA at EC80; TR-FRET cAMP readout; read-out: A2AR Potency (IC50, inhibition of NECA-stimulated cAMP production). How it is done:
The antagonistic activities of the triazolotriazine derivatives of the present invention were measured in a functional cAMP production assay. The assay consists of NECA stimulation of cAMP production and its inhibition by A2AR antagonists in A2AR-expressing HEK293 cells (hADORA2A-HEK293). All cells were cultured in complete medium at 37° C. in 5% CO2. The cells were detached with pancreatin and collected at 200 g for 5 min. After resuspending the cells in fresh complete medium, the cell viability is counted using the trypan blue exclusion method. […] After the cells were diluted with Hank's buffered saline solution containing HEPES (5 mM), BSA stabilizer (0.1%) and […] Rolipram (10 μM), cells were loaded into white opaque 384-well plates (˜500 cells/well, 10 μl/well) and incubated with test compound at a suitable concentration range (11 concentrations) for 20 min at room temperature. Then the A2A receptor agonist NECA (final concentration=EC80, which was determined in the same experiment slightly earlier) was added to the sample and the mixture was incubated again for 30 min at 37° C. […] The inhibition rate (%) was calculated according to the following formula. The IC50 values were calculated from concentration-inhibition (%) curves after log transformation.
(Cyclic AMP is a second messenger, typically raised through Gs and lowered through Gi signalling.)

T1 sequence (P29274 whole entry): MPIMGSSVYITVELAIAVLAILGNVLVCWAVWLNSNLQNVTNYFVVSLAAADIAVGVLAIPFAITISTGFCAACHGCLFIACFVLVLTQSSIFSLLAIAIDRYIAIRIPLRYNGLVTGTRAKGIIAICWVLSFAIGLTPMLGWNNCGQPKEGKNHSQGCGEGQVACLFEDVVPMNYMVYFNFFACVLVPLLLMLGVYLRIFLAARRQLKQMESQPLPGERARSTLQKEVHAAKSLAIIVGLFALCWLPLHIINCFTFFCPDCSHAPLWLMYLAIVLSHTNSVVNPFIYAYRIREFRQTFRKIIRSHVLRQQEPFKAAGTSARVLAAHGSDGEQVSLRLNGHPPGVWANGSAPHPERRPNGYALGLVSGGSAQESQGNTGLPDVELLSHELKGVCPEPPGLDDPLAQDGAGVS

The term IC50 denotes the concentration that inhibits the measured activity by half. As to `Nc1nc(NCCc2ccc(OCC3CCN(Cc4cccnc4)C3)cc2)nc2nc(-c3ccco3)nn12` (stereo in doubt) [Example 283, (S)-2-(Furan-2-yl)-N5-(4-((1-(pyridin-3-ylmethyl)pyrrolidin-3-yl)methoxy)phenethyl)-[1,2,4]triazolo[1,5-a][1,3,5]triazine-5,7-diamine], the IC50 was determined as 43.2 nM. As for `Nc1nc(NCCc2ccc(OCCCc3ccncc3)cc2)nc2nc(-c3ccco3)nn12` [Example 36, 2-(Furan-2-yl)-N5-(4-(3-(pyridin-4-yl)propoxy)phenethyl)-[1,2,4]triazolo[1,5-α][1,3,5]-triazine-5,7-diamine], the figure is 11 nM. In the case of `Nc1nc(NCCc2ccc(OCCCc3cccnc3)cc2)nc2nc(-c3ccco3)nn12` [Example 40, 2-(Furan-2-yl)-N5-(4-(3-(pyridin-3-yl)propoxy)phenethyl)-[1,2,4]triazolo[1,5-α][1,3,5]-triazine-5,7-diamine], the IC50 was determined as 11 nM. With `COCCOCCOc1ccc(CCNc2nc(N)n3nc(-c4ccco4)nc3n2)cc1` [Example 60, 2-(Furan-2-yl)-N5-(4-(2-(2-methoxyethoxy)ethoxy)phenethyl)-[1,2,4]triazolo[1,5-α][1,3,5]triazine-5,7-diamine] the figure was 10 nM; with `Nc1nc(NCCc2ccc(OCCOCCF)cc2)nc2nc(-c3ccco3)nn12` [Example 245, N5-(4-(2-(2-Fluoroethoxy)ethoxy)phenethyl)-2-(furan-2-yl)-[1,2,4]triazolo[1,5-a][1,3,5]triazine-5,7-diamine], 10.1 nM. As for `COCCOCCOCCOCCOCCOc1ccc(CCNc2nc(N)n3nc(-c4ccco4)nc3n2)cc1` [Example 74, N5-(4-(2,5,8,11,14-Pentaoxahexadecan-16-yloxy)phenethyl)-2-(furan-2-yl)-[1,2,4]triazolo[1,5-α][1,3,5]triazine-5,7-diamine], the figure is 32.3 nM; as for `COCCOCCOCCOCCOCCOCCOCCOCCOc1ccc(CCNc2nc(N)n3nc(-c4ccco4)nc3n2)cc1` [Example 109, N5-(4-(2-(2-(2-(2-(2-(2-(2-(2-Methoxyethoxy)ethoxy)ethoxy)ethoxy)ethoxy)ethoxy)ethoxy)-ethoxy)phenethyl)-2-(furan-2-yl)-[1,2,4]triazolo[1,5-a][1,3,5]triazine-5,7-diamine], 55 nM; as for `Nc1nc(NCCc2ccc(NC(=O)Cc3ccncc3)cc2)nc2nc(-c3ccco3)nn12` [Example 276, N-(4-(2-((7-Amino-2-(furan-2-yl)-[1,2,4]triazolo[1,5-a][1,3,5]triazin-5-yl)amino)ethyl)-phenyl)-2-(pyridin-4-yl)acetamide], 17.5 nM. Take `Nc1nc(NCCc2ccc(NCCN3CCOCC3)cc2)nc2nc(-c3ccco3)nn12` [Example 318, 2-(Furan-2-yl)-N5-(4-((2-morpholinoethyl)amino)phenethyl)-[1,2,4]triazolo[1,5-a][1,3,5]triazine-5,7-diamine]: the IC50 was found to be 11.1 nM. As for `COCCOCCOCCOCCOc1ccc(CCNc2nc(N)n3nc(-c4ccco4)nc3n2)cc1` [Example 70, N5-(4-(2,5,8,11-Tetraoxatridecan-13-yloxy)phenethyl)-2-(furan-2-yl)-[1,2,4]triazolo[1,5-α][1,3,5]triazine-5,7-diamine], the figure is 19 nM; as for `CN(C)CCCOc1ccc(CCNc2cc(N)n3nc(-c4ccco4)nc3c2)cc1` [Example 113, N^7-(4-(3-(Dimethylamino)propoxy)phenethyl)-2-(furan-2-yl)-[1,2,4]triazolo[1,5-a]pyridine-5,7-diamine], 15 nM; as for `CN(C)Cc1ccc(CCNc2nc(N)n3nc(-c4ccco4)nc3n2)cc1` [Example 306, N5-(4-((Dimethylamino)methyl)phenethyl)-2-(furan-2-yl)-[1,2,4]triazolo[1,5-a][1,3,5]triazine-5,7-diamine], 163 nM. With `CC(C)(C)C(=O)Nc1ccc(CCNc2nc(N)n3nc(-c4ccco4)nc3n2)cc1` [Example 324, N-(4-(2-((7-Amino-2-(furan-2-yl)-[1,2,4]triazolo[1,5-a][1,3,5]triazin-5-yl)amino)ethyl)-phenyl)pivalamide] the figure was 10.8 nM; with `Nc1nc(NCCc2c[nH]cn2)nc2nc(-c3ccco3)nn12` [Example 42, N5-(2-(1H-Imidazol-4-yl)ethyl)-2-(furan-2-yl)-[1,2,4]triazolo[1,5-α][1,3,5]triazine-5,7-diamine], 129 nM. Turning to `CN(C)C1CN(CCOc2ccc(CCNc3nc(N)n4nc(-c5ccco5)nc4n3)cc2)C1` [Example 162, N5-(4-(2-(3-(Dimethylamino)azetidin-1-yl)ethoxy)phenethyl)-2-(furan-2-yl)-[1,2,4]triazolo[1,5-a][1,3,5]triazine-5,7-diamine], the IC50 was 17.5 nM. With `Nc1nc(NCCc2ccc(OCCN3CCCC3)cc2)nc2nc(-c3ccco3)nn12` [Example 16, 2-(Furan-2-yl)-N5-(4-(2-(pyrrolidin-1-yl)ethoxy)phenethyl)-[1,2,4]triazolo[1,5-α][1,3,5]-triazine-5,7-diamine] the figure was 24 nM. As for `CN(C)CCOc1ccc(CCNc2nc(N)n3nc(-c4ccco4)nc3n2)cc1` [Example 13, N5-(4-(2-(Dimethylamino)ethoxy)phenethyl)-2-(furan-2-yl)-[1,2,4]triazolo[1,5-α][1,3,5]-triazine-5,7-diamine], the figure is 18 nM; as for `COCCOc1ccc(CCNc2nc(N)n3nc(-c4ccco4)nc3n2)cc1` [Example 57, 2-(Furan-2-yl)-N5-(4-(2-methoxyethoxy)phenethyl)-[1,2,4]triazolo[1,5-α][1,3,5]triazine-5,7-diamine], 7 nM; as for `Nc1nc(NCCc2ccc(NC(=O)CCN3CCC3)cc2)nc2nc(-c3ccco3)nn12` [Example 313, N-(4-(2-((7-Amino-2-(furan-2-yl)-[1,2,4]triazolo[1,5-a][1,3,5]triazin-5-yl)amino)ethyl)-phenyl)-3-(azetidin-1-yl)propanamide], 13.8 nM. With `CN(C)[C@H]1CCN(CCOc2ccc(CCNc3nc(N)n4nc(-c5ccco5)nc4n3)cc2)C1` [Example 154, (S)-N5-(4-(2-(3-(Dimethylamino)pyrrolidin-1-yl)ethoxy)phenethyl)-2-(furan-2-yl)-[1,2,4]triazolo[1,5-a][1,3,5]triazine-5,7-diamine], the IC50 worked out at 25.3 nM. As for `COCCOCCOCCOCCOCCOCCOCCOc1ccc(CCNc2nc(N)n3nc(-c4ccco4)nc3n2)cc1` [Example 102, N5-(4-(2-(2-(2-(2-(2-(2-(2-Methoxyethoxy)ethoxy)ethoxy)ethoxy)ethoxy)ethoxy)ethoxy)-phenethyl)-2-(furan-2-yl)-[1,2,4]triazolo[1,5-a][1,3,5]triazine-5,7-diamine], the figure is 19 nM. With `CN1CCCN(CCOc2ccc(CCNc3nc(N)n4nc(-c5ccco5)nc4n3)cc2)CC1` [Example 286, 2-(Furan-2-yl)-N5-(4-(2-(4-methyl-1,4-diazepan-1-yl)ethoxy)phenethyl)-[1,2,4]triazolo[1,5-a][1,3,5]triazine-5,7-diamine], the IC50 was determined as 33 nM. With `CN(C)CCNc1ccc(CCNc2nc(N)n3nc(-c4ccco4)nc3n2)cc1` [Example 254, N5-(4-((2-(Dimethylamino)ethyl)amino)phenethyl)-2-(furan-2-yl)-[1,2,4]triazolo[1,5-a][1,3,5]triazine-5,7-diamine] the figure was 19.6 nM; with `Nc1nc(NCCc2ccc(OCCCN3CCCCC3)cc2)nc2nc(-c3ccco3)nn12` [Example 54, 2-(Furan-2-yl)-N5-(4-(3-(piperidin-1-yl)propoxy)phenethyl)-[1,2,4]triazolo[1,5-α][1,3,5]-triazine-5,7-diamine], 19.2 nM; with `Nc1nc(NCCc2ccc(OCC(F)(F)F)cc2)nc2nc(-c3ccco3)nn12` [Example 207, N5-(4-(2,2,2-Trifluoroethoxy)phenethyl)-2-(furan-2-yl)-[1,2,4]triazolo[1,5-a][1,3,5]triazine-5,7-diamine], 8.96 nM. As for `Nc1nc(NCCc2ccc(OCCCN3CCCC3)cc2)nc2nc(-c3ccco3)nn12` [Example 19, 2-(Furan-2-yl)-N5-(4-(3-(pyrrolidin-1-yl)propoxy)phenethyl)-[1,2,4]triazolo[1,5-α][1,3,5]-triazine-5,7-diamine], the figure is 29 nM; as for `CC(C)(O)C(=O)Nc1ccc(CCNc2nc(N)n3nc(-c4ccco4)nc3n2)cc1` [Example 326, N-(4-(2-((7-Amino-2-(furan-2-yl)-[1,2,4]triazolo[1,5-a][1,3,5]triazin-5-yl)amino)ethyl)-phenyl)-2-hydroxy-2-methylpropanamide], 10.7 nM. As for `COCCOCCOCCOCCOCCOCCOc1ccc(CCNc2nc(N)n3nc(-c4ccco4)nc3n2)cc1` [Example 78, N5-(4-(2,5,8,11,14,17-Hexaoxanonadecan-19-yloxy)phenethyl)-2-(furan-2-yl)-[1,2,4]triazolo[1,5-α][1,3,5]triazine-5,7-diamine], the figure is 31.3 nM; as for `COCCOCCOCCOc1ccc(CCNc2nc(N)n3nc(-c4ccco4)nc3n2)cc1` [Example 65, 2-(Furan-2-yl)-N5-(4-(2-(2-(2-methoxyethoxy)ethoxy)ethoxy)phenethyl)-[1,2,4]triazolo[1,5-α][1,3,5]triazine-5,7-diamine], 21.5 nM.
